# Earlier results in publication PMC3618964 (Journal of medicinal chemistry, 2010).
# Biological target: SaDHFR
# Conditions: read-out: Ki value (SaDHFR)
smiles,measurement,value
CCc1nc(N)nc(N)c1C#CCc1cc(OC)ccc1OC [Compound 9],Ki,9.9 nM
